MIC and Ratio data for four compounds are collected here from ChEMBL document CHEMBL2040848, “Synthesis and bioactivity evaluation of rhodanine derivatives as potential anti-bacterial agents” (2012).

Format in all cases: functional
In assay [1] the test system is Staphylococcus aureus. Put plainly: Antibacterial activity against Staphylococcus aureus KCTC 4220 after 24 hrs by two-fold serial dilution method. The settings on record: KCTC 4220, 24 h.
In assay [2] the test system is Staphylococcus aureus. Put plainly: Ratio of MIC for oxacillin to compound for methicillin-resistant Staphylococcus aureus CCARM 3167 after 24 hrs by two-fold serial dilution method.
For assay [3], the system named is Staphylococcus aureus. Put plainly: Ratio of MIC for norfloxacin to compound for methicillin-resistant Staphylococcus aureus CCARM 3506 after 24 hrs by two-fold serial dilution method.
The subject of assay [4] is Staphylococcus aureus. Put plainly: Ratio of MIC for norfloxacin to compound for Staphylococcus aureus KCTC 503 after 24 hrs by two-fold serial dilution method.
Assay [5] deals with Staphylococcus aureus. Put plainly: Ratio of MIC for norfloxacin to compound for quinolone-resistant Staphylococcus aureus CCARM 3519 after 24 hrs by two-fold serial dilution method.
Assay [6] concerns Staphylococcus aureus. Put plainly: Ratio of MIC for norfloxacin to compound for quinolone-resistant Staphylococcus aureus CCARM 3505 after 24 hrs by two-fold serial dilution method.
In assay [7] the test system is Staphylococcus aureus. Put plainly: Ratio of MIC for norfloxacin to compound for methicillin-resistant Staphylococcus aureus CCARM 3167 after 24 hrs by two-fold serial dilution method.
Assay [8] has as its system Staphylococcus aureus. Put plainly: Antibacterial activity against methicillin-resistant Staphylococcus aureus CCARM 3506 after 24 hrs by two-fold serial dilution method. The settings on record: CCARM 3506, 24 h.
Assay [9] deals with Staphylococcus aureus. Put plainly: Antibacterial activity against Staphylococcus aureus KCTC 209 after 24 hrs by two-fold serial dilution method. The settings on record: KCTC 209, 24 h.
The test system of assay [10] is Staphylococcus aureus. Put plainly: Ratio of MIC for norfloxacin to compound for Staphylococcus aureus KCTC 4220 after 24 hrs by two-fold serial dilution method.
Assay [11] concerns Staphylococcus aureus. Put plainly: Ratio of MIC for oxacillin to compound for methicillin-resistant Staphylococcus aureus CCARM 3506 after 24 hrs by two-fold serial dilution method.
In assay [12] the test system is Staphylococcus aureus. Put plainly: Antibacterial activity against quinolone-resistant Staphylococcus aureus CCARM 3505 after 24 hrs by two-fold serial dilution method. The settings on record: CCARM 3505, 24 h.
In assay [13] the test system is Staphylococcus aureus. Put plainly: Antibacterial activity against quinolone-resistant Staphylococcus aureus CCARM 3519 after 24 hrs by two-fold serial dilution method. The following applies: CCARM 3519, 24 h.
A further assay relates to Escherichia coli. Put plainly: Antibacterial activity against Escherichia coli 1356 after 24 hrs by two-fold serial dilution method. The settings on record: Escherichia coli, 1356, 24 h.
Assay [14] has as its system Staphylococcus aureus. Put plainly: Antibacterial activity against Staphylococcus aureus KCTC 503 after 24 hrs by two-fold serial dilution method. The settings on record: KCTC 503, 24 h.
Assay [15] deals with Staphylococcus aureus. Put plainly: Antibacterial activity against methicillin-resistant Staphylococcus aureus CCARM 3167 after 24 hrs by two-fold serial dilution method. The following applies: CCARM 3167, 24 h.
For assay [16], the system named is Staphylococcus aureus. Put plainly: Ratio of MIC for norfloxacin to compound for Staphylococcus aureus KCTC 209 after 24 hrs by two-fold serial dilution method.

Converted amounts (≈) assume the structure as drawn. A value given as a limit tells only on which side of the number the result lay.

What is called MIC is the least concentration at which growth counts as inhibited. Lower therefore signals inhibition by little substance. Consider `O=C(COc1ccc(/C=C2\SC(=S)N([C@@H](Cc3c[nH]c4ccccc34)C(=O)O)C2=O)cc1)c1ccc(Cl)cc1`, for which the minimum inhibitory concentration (MIC) was 1 µg/mL (≈ 1.73 µM) against Staphylococcus aureus [1]; 1 µg/mL (≈ 1.73 µM) with Staphylococcus aureus [8]; 1 µg/mL (≈ 1.73 µM) in the assay on Staphylococcus aureus [9]; 1 µg/mL (≈ 1.73 µM) against Staphylococcus aureus [12]; 1 µg/mL (≈ 1.73 µM) with Staphylococcus aureus [13]; greater than 64 µg/mL in the assay with Escherichia coli. The MIC against Staphylococcus aureus [14] and against Staphylococcus aureus [15] was 1 µg/mL (≈ 1.73 µM) throughout. Besides, the Ratio was determined as 64 in the assay on Staphylococcus aureus [2]; 4 with Staphylococcus aureus [3]; 2 with Staphylococcus aureus [4]; 64 in the assay with Staphylococcus aureus [5]; 64 with Staphylococcus aureus [6]; 4 with Staphylococcus aureus [7]. Moreover, the figures for the Ratio in the assay with Staphylococcus aureus [10], with Staphylococcus aureus [11] and with Staphylococcus aureus [16] were 2, 64 and 2, respectively.
In the case of `O=C(COc1ccc(/C=C2\SC(=S)N([C@@H](Cc3c[nH]c4ccccc34)C(=O)O)C2=O)cc1)c1cccc(Cl)c1`, the MIC against Staphylococcus aureus [1] was 8 µg/mL (≈ 13.9 µM); with Staphylococcus aureus [8], 1 µg/mL (≈ 1.73 µM); in the assay on Staphylococcus aureus [9] it was 4 µg/mL (≈ 6.93 µM); in the assay with Staphylococcus aureus [12] it was 1 µg/mL (≈ 1.73 µM); with Staphylococcus aureus [13] it was 1 µg/mL (≈ 1.73 µM); in the assay with Escherichia coli, greater than 64 µg/mL. Further, the results for the MIC against Staphylococcus aureus [14] and in the assay on Staphylococcus aureus [15] were 4 µg/mL (≈ 6.93 µM) and 1 µg/mL (≈ 1.73 µM), respectively. The Ratio is reported as 64 with Staphylococcus aureus [2]; 4 in the assay with Staphylococcus aureus [3]; 64 in the assay with Staphylococcus aureus [5]; 64 in the assay with Staphylococcus aureus [6]; 4 in the assay with Staphylococcus aureus [7]; 64 with Staphylococcus aureus [11].
As for `O=C(COc1ccc(/C=C2\SC(=S)N([C@@H](Cc3ccccc3)C(=O)O)C2=O)cc1)c1ccc(F)cc1`, the MIC with Staphylococcus aureus [1] is 4 µg/mL (≈ 7.67 µM); with Staphylococcus aureus [8], 1 µg/mL (≈ 1.92 µM); against Staphylococcus aureus [9] it was 4 µg/mL (≈ 7.67 µM); in the assay with Staphylococcus aureus [12], 1 µg/mL (≈ 1.92 µM); with Staphylococcus aureus [13], 1 µg/mL (≈ 1.92 µM); with Escherichia coli, greater than 64 µg/mL. Further, the minimal inhibitory concentration (MIC) in the assay with Staphylococcus aureus [14] turned out to be 4 µg/mL (≈ 7.67 µM); in the assay on Staphylococcus aureus [15], 1 µg/mL (≈ 1.92 µM). The Ratio was found to be 64 in the assay on Staphylococcus aureus [2]; 4 in the assay on Staphylococcus aureus [3]; 64 in the assay with Staphylococcus aureus [5]; 64 with Staphylococcus aureus [6]; 4 in the assay with Staphylococcus aureus [7]; 64 in the assay on Staphylococcus aureus [11].
Regarding `O=C(COc1ccc(/C=C2\SC(=S)N([C@@H](Cc3ccccc3)C(=O)O)C2=O)cc1)c1ccccc1F`, the MIC with Staphylococcus aureus [1] is 8 µg/mL (≈ 15.3 µM); in the assay with Staphylococcus aureus [8], 4 µg/mL (≈ 7.67 µM); in the assay on Staphylococcus aureus [9], 4 µg/mL (≈ 7.67 µM); with Staphylococcus aureus [12] it was 4 µg/mL (≈ 7.67 µM); in the assay on Staphylococcus aureus [13], 4 µg/mL (≈ 7.67 µM); against Escherichia coli, greater than 64 µg/mL. For the same compound, the MIC is 8 µg/mL (≈ 15.3 µM) against Staphylococcus aureus [14] and 4 µg/mL (≈ 7.67 µM) in the assay on Staphylococcus aureus [15].
